Data from patent publication US8436189B2, “Heterocyclic alkanol derivatives” (Bayer Intellectual Property GmbH, priority 2010, dated 2013).

Key:
Leptosphaeria nodorum = Leptosphaeria nodorum test (wheat)/protective; type: in vivo; conditions: protective spray, application rate 500 ppm, evaluation 8 days after inoculation, 0% = control, 100% = no infection
Protocol: (§1) Solvent: 49 parts by weight of N,N-dimethylacetamide
(§2) Emulsifier: 1 part by weight of alkylaryl polyglycol ether
(§3) To produce an appropriate active ingredient formulation, 1 part by weight of active ingredient is mixed with the specified amounts of solvent and emulsifier, and the concentrate is diluted with water to the desired concentration. To test for protective activity, young plants are sprayed with the formulation of active ingredient at the stated application rate. After the spray coating has dried on, the plants are sprayed with spores with a spore suspension of Leptosphaeria nodorum. The plants remain in an incubation cabin at 20° C. and 100% relative air humidity for 48 hours. The plants are placed in a greenhouse at a temperature of about 22° C. and a relative air humidity of about 80%. Evaluation follows 8 days after the inoculation. 0% means an efficacy which corresponds to that of the control, whereas an efficacy of 100% means that no infection is observed. In this test, the following inventive compounds, at an active ingredient concentration of 500 ppm, show an efficacy of 70% or more.

[1] = test system: Blumeria graminis f sp. hordei; assay: Blumeria graminis test (barley)/protective; type: in vivo; conditions: protective spray, application rate 500 ppm, evaluation 7 days after inoculation, 0% = control, 100% = no infection
Protocol: Solvent: 49 parts by weight of N,N-dimethylacetamide Emulsifier: 1 part by weight of alkylaryl polyglycol ether To produce an appropriate active ingredient formulation, 1 part by weight of active ingredient is mixed with the specified amounts of solvent and emulsifier, and the concentrate is diluted with water to the desired concentration. To test for protective activity, young plants are sprayed with the formulation of active ingredient at the stated application rate. After the spray coating has dried on, the plants are dusted with spores of Blumeria graminis f sp. hordei. The plants are placed in a greenhouse at a temperature of about 18° C. and a relative air humidity of about 80% to promote the development of mildew pustules. Evaluation follows 7 days after the inoculation. 0% means an efficacy which corresponds to that of the control, whereas an efficacy of 100% means that no infection is observed. In this test, the following inventive compounds, at an active ingredient concentration of 500 ppm, show an efficacy of 70% or more.

Puccinia triticina = Puccinia triticina test (wheat)/protective; type: in vivo; conditions: protective spray, application rate 500 ppm, evaluation 8 days after inoculation, 0% = control, 100% = no infection
Protocol: as §1, §2
as §3, with “Puccinia triticina.” for “Leptosphaeria nodorum.”, “20°” for “22°”

[2] = log P by HPLC on reversed-phase columns (C18), EEC Directive 79/831 Annex V.A8; type: physicochemical; conditions: method [a]: LC-MS, acidic range, pH 2.7, 0.1% aqueous formic acid / acetonitrile, gradient 10% to 95% acetonitrile
Protocol: The log P values were measured in accordance with EEC Directive 79/831 Annex V.A8 by HPLC (High Performance Liquid Chromatography) using reversed-phase columns (C18) by the following methods: [a] The LC-MS determination in the acidic range is effected at pH 2.7 with 0.1% aqueous formic acid and acetonitrile (contains 0.1% formic acid) as eluents; linear gradient from 10% acetonitrile to 95% acetonitrile.

Venturia inaequalis = assay: Venturia test (apple)/protective; type: in vivo; conditions: protective spray, application rate 100 ppm, evaluation 10 days after inoculation, 0% = control, 100% = no infection
Protocol: Solvent: 24.5 parts by weight of acetone • 24.5 parts by weight of dimethylacetamide Emulsifier: 1 part by weight of alkylaryl polyglycol ether To produce an appropriate active ingredient formulation, 1 part by weight of active ingredient is mixed with the specified amounts of solvent and emulsifier, and the concentrate is diluted with water to the desired concentration. To test for protective activity, young plants are sprayed with the active ingredient formulation at the stated application rate. After the spray coating has dried on, the plants are inoculated with an aqueous conidia suspension of the apple scab pathogen Venturia inaequalis and then remain in an incubation cabin at about 20° C. and 100% relative air humidity for 1 day. The plants are then placed in a greenhouse at about 21° C. and a relative air humidity of about 90%. Evaluation follows 10 days after the inoculation. 0% means an efficacy which corresponds to that of the control, whereas an efficacy of 100% means that no infection is observed. In this test, the following inventive compounds, at an active ingredient concentration of 100 ppm, show an efficacy of 70% or more.

Uromyces appendiculatus = assay: Uromyces test (bean)/protective; type: in vivo; conditions: protective spray, application rate 100 ppm, evaluation 10 days after inoculation, 0% = control, 100% = no infection
Protocol: Solvent: 24.5 parts by weight of acetone • 24.5 parts by weight of dimethylacetamide Emulsifier: 1 part by weight of alkylaryl polyglycol ether To produce an appropriate active ingredient formulation, 1 part by weight of active ingredient is mixed with the specified amounts of solvent and emulsifier, and the concentrate is diluted with water to the desired concentration. To test for protective activity, young plants are sprayed with the active ingredient formulation at the stated application rate. After the spray coating has dried on, the plants are inoculated with an aqueous spore suspension of the bean rust pathogen Uromyces appendiculatus and then remain in an incubation cabin at about 20° C. and 100% relative air humidity for 1 day. The plants are then placed in the greenhouse at about 21° C. and a relative air humidity of about 90%. Evaluation follows 10 days after the inoculation. 0% means an efficacy which corresponds to that of the control, whereas an efficacy of 100% means that no infection is observed. In this test, the following inventive compounds, at an active ingredient concentration of 100 ppm, show an efficacy of 70% or more.

Row | SMILES | logP [2] | also measured
1 | CC(C)(C)C(O)(COc1ccc(Br)cc1Cl)c1cncs1 (stereo not drawn) [Compound No. 2] |  | Efficacy (%) (Leptosphaeria nodorum): 92%; Efficacy (%) [1]: 100%; Efficacy (%) (Puccinia triticina): 95%
2 | CC(C)(C)C(O)(COc1ccc(Br)cc1F)c1cncs1 (stereo not drawn) [Compound No. 3] |  | Efficacy (%) (Leptosphaeria nodorum): 100%; Efficacy (%) [1]: 100%; Efficacy (%) (Puccinia triticina): 100%
3 | CC(C)(C)C(O)(Cc1ccc(F)cc1F)c1cncs1 (stereo not drawn) [Compound No. 31] |  | chromatographic logP ([2]; reversed-phase HPLC column (C18)): 3.04
4 | CC(C)(C)C(O)(COc1ccc(I)cc1F)c1cncs1 (stereo not drawn) [compound 1] |  | Efficacy (%) (Venturia inaequalis): 97%; Efficacy (%) (Leptosphaeria nodorum): 100%; Efficacy (%) [1]: 100%; Efficacy (%) (Uromyces appendiculatus): 100%; Efficacy (%) (Puccinia triticina): 100%
5 | CC(C)(C)C(O)(COc1ccc(I)cc1Cl)c1cncs1 (stereo not drawn) [compound 5] | logP 4.14^[a]; [M + H]^+ = 438. | 
6 | CC1(C(O)(COc2cc(Br)cc(Br)c2)c2cncs2)CC1 (stereo not drawn) [compound 7] | logP 4.03^[a]; [M + H]^+ = 434 | 
7 | Cc1cc(I)ccc1OCC(O)(c1cncs1)C1(C)CC1 (stereo not drawn) [compound 10] | logP 3.88^[a]; [M + H]^+ = 416 | 
8 | CC1(C(O)(COc2ccc(Br)c(F)c2)c2cncs2)CC1 (stereo not drawn) [compound 12] | logP 3.30^[a]; [M + H]^+ = 372, 374 | 
9 | CC1(C(O)(COc2ccc(Br)c(C(F)(F)F)c2)c2cncs2)CC1 (stereo not drawn) [compound 13] | logP 3.70^[a]; [M + H]^+ = 422, 424 | 
10 | COc1cc(OC(F)(F)F)ccc1OCC(O)(c1cncs1)C(C)(C)C (stereo not drawn) [compound 14] | logP 3.70^[a]; [M + H]^+ = 392. | 
11 | CC1(C(O)(COc2ccc(I)c([N+](=O)[O-])c2)c2cncs2)CC1 (stereo not drawn) [compound 15] | logP 3.11^[a]; [M + H]^+ = 447 | 
12 | CC(C)(C)C(O)(COc1ccc(SC(F)(F)F)c(F)c1)c1cncs1 (stereo not drawn) [compound 16] | logP 3.96^[a]; [M + H]^+ = 396. | 
13 | Cc1cc(OCC(O)(c2cncs2)C(C)(C)C)ccc1S(C)(=O)=O (stereo not drawn) [compound 17] | logP 2.21^[a]; [M + H]^+ = 370. | 
14 | Cc1cc(OCC(O)(c2cncs2)C(C)(C)C)ccc1[S+](C)[O-] (stereo not drawn) [compound 18] | logP 1.90^[a]; [M + H]^+ = 354. | 
15 | Cc1cc(S(=O)(=O)C(F)(F)F)ccc1OCC(O)(c1cncs1)C(C)(C)C (stereo not drawn) [compound 19] | logP 3.63^[a]; [M + H]^+ = 424. | 
16 | COc1cc(S(=O)(=O)C(F)(F)F)ccc1OCC(O)(c1cncs1)C(C)(C)C (stereo not drawn) [compound 20] | logP 3.37^[a]; [M + H]^+ = 440. | 
17 | CC(C)(C)C(O)(COc1ccc(SC(F)(F)F)c(Cl)c1)c1cncs1 (stereo not drawn) [compound 21] | logP 4.31^[a]; [M + H]^+ = 412. | 

Row | SMILES | logP [2] | also measured
18 | Cc1cc(OCC(O)(c2cncs2)C(C)(C)C)ccc1SC(F)(F)F (stereo not drawn) [compound 22] | logP 4.35^[a]; [M + H]^+ = 392. | 
19 | Cc1cc(SC(F)(F)F)ccc1OCC(O)(c1cncs1)C(C)(C)C (stereo not drawn) [compound 23] | logP 4.43^[a]; [M + H]^+ = 392. | 
20 | CC(C)(C)C(O)(COc1ccc(OC(F)(F)F)c(Cl)c1)c1cncs1 (stereo not drawn) [compound 24] | logP 4.02^[a]; [M + H]^+ = 396. | 
21 | Cc1cc(Cl)ccc1OCC(O)(c1cncs1)C(C)(C)C (stereo not drawn) [compound 25] | logP 3.77^[a]; [M + H]^+ = 326. | 
22 | CC(C)(C)C(O)(COc1ccc(Cl)cc1F)c1cncs1 (stereo not drawn) [compound 26] | logP 3.37^[a]; [M + H]^+ = 330. | 
23 | Cc1cc(OCC(O)(c2cncs2)C(C)(C)C)ccc1Cl (stereo not drawn) [compound 27] | logP 3.74^[a]; [M + H]^+ = 326. | 
24 | CSc1ccc(OCC(O)(c2cncs2)C(C)(C)C)cc1C (stereo not drawn) [compound 28] | logP 3.63^[a]; [M + H]^+ = 338. | 
25 | CC(C)(C)C(O)(COc1ccc(OC(F)(F)F)cc1Cl)c1cncs1 (stereo not drawn) [compound 29] | logP 4.10^[a]; [M + H]^+ = 396. | 
26 | CC1(C(O)(COc2ccc(Br)cc2F)c2cncs2)CC1 (stereo not drawn) [compound 32] | logP 3.32^[a]; [M + H]+ = 372, 374 | 
27 | CC(C)(C)C(O)(COc1ccc(Cl)cc1Cl)c1cncs1 (stereo not drawn) [compound 33] | logP 3.84^[a] | 
28 | CC(C)(C)C(O)(COc1ccc(F)cc1F)c1cncs1 (stereo not drawn) [compound 34] | logP 2.98^[a] | 
29 | COc1cc(Br)ccc1OCC(O)(c1cncs1)C1(C)CC1 (stereo not drawn) [compound 35] | logP 3.26^[a] | 
30 | COc1cc(OCC(O)(c2cncs2)C2(C)CC2)ccc1Br (stereo not drawn) [compound 36] | logP 3.16^[a] | 
31 | CC(C)(C)C(O)(COc1ccc(Cl)cc1C(F)(F)F)c1cncs1 (stereo not drawn) [compound 37] | logP 3.96^[a] | 
32 | CC(C)(C)C(O)(COc1ccc(Cl)c(Cl)c1)c1cncs1 (stereo not drawn) [compound 39] | logP 3.72^[a] | 
33 | CC(C)(C)C(O)(COc1ccc(OC(F)(F)F)c(Br)c1)c1cncs1 (stereo not drawn) [compound 41] | logP 4.12^[a] | 
34 | Cc1cc(OC(F)(F)F)ccc1OCC(O)(c1cncs1)C(C)(C)C (stereo not drawn) [compound 42] | logP 4.12^[a] | 
